Measurements from ChEMBL document CHEMBL1156984, “Synthesis and biological evaluation of piperazinyl heterocyclic antagonists of the gonadotropin releasing hormone (GnRH) receptor” (Bioorg Med Chem Lett, 2010).
≈ marks a conversion by molar mass, not a printed value.

Key:
[1] = biological target: T1, Gonadotropin-releasing hormone receptor (Homo sapiens, UniProt P30968); assay: Displacement of [125I]D-Trp6-GnRH from human recombinant GNRH receptor by scintillation counting
T1 sequence (P30968 whole entry): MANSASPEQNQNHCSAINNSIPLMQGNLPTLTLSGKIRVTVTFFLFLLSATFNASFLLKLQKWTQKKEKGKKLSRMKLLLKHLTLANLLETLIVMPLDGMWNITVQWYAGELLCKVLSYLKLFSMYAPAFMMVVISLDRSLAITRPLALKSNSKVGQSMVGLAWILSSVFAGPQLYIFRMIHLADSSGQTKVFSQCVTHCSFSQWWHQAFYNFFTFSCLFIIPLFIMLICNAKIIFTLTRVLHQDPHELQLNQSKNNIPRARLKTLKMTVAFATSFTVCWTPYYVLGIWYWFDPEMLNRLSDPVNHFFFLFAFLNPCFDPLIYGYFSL

[2] = biological target: T2, Gonadotropin-releasing hormone receptor (Rattus norvegicus, UniProt P30969); assay: Antagonist activity at GNRH receptor in rat pituitary cells assessed as inhibition of D-Trp6-GnRH-induced LH accumulation after 3 hrs by RIA; assay type: functional, cell-based, Pituitary gland cell
T2 sequence (P30969 whole entry): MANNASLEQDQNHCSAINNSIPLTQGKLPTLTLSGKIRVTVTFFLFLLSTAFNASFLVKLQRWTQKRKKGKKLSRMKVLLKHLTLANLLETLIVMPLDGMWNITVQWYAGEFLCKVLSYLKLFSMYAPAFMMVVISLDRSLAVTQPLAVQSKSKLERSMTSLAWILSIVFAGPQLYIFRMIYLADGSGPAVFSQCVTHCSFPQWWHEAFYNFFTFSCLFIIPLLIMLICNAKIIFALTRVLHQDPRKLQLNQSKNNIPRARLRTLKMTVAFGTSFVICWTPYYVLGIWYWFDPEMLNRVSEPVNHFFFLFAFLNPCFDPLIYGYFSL

[3] = biological target: T2, Gonadotropin-releasing hormone receptor; assay: Displacement of [125I]D-Trp6-GnRH from rat recombinant GNRH receptor by scintillation counting
[4] = biological target: T1, Gonadotropin-releasing hormone receptor; assay: Antagonist activity at human recombinant GNRH receptor assessed as inhibition of D-Trp6-GNRH-induced IP accumulation after 1 hr by rapid filtration assay; assay type: functional
Cytochrome P450 3A4 = Cytochrome P450 3A4 (Homo sapiens, UniProt P08684); assay: Inhibition of CYP3A4; assay type: ADME
Cytochrome P450 2C9 = Cytochrome P450 2C9 (Homo sapiens, UniProt P11712); assay: Inhibition of CYP2C9; assay type: ADME
[5] = Half life in rat liver microsomes; assay type: ADME, Microsome
[6] = Permeability by PAMPA method; assay type: ADME; settings: read-out: permeability
Cytochrome P450 2D6 = Cytochrome P450 2D6 (Homo sapiens, UniProt P10635); assay: Inhibition of CYP2D6; assay type: ADME
[7] = Solubility at pH 7.4; assay type: physicochemical; settings: buffer
[8] = biological target: T3, Gonadotropin-releasing hormone receptor (Homo sapiens) (UniProt P30968); assay: Displacement of [125I]D-Trp6-GnRH from human recombinant GNRH receptor at 500 nM by scintillation counting
T3 sequence (whole entry): T1 sequence (P30968 whole entry)

[9] = Half life in orchidectomized Sprague-Dawley rat at 1 mg/kg, iv; assay type: ADME, organism-based; parameters: dose 1 mg/kg, route intravenous; settings: male, in vivo
[10] = AUC (0 to infinity) in orchidectomized Sprague-Dawley rat at 1 mg/kg, iv; assay type: ADME, organism-based; parameters: time infinity, dose 1 mg/kg, route intravenous; settings: male, plasma
[11] = Half life in orchidectomized Sprague-Dawley rat at 30 mg/kg, po; assay type: ADME, organism-based; parameters: dose 30 mg/kg, route oral; settings: male, in vivo
[12] = Cmax in orchidectomized Sprague-Dawley rat at 30 mg/kg, po; assay type: ADME, organism-based; parameters: dose 30 mg/kg, route oral; settings: male, in vivo
[13] = AUC (0 to infinity) in orchidectomized Sprague-Dawley rat at 30 mg/kg, po; assay type: ADME, organism-based; parameters: time infinity, dose 30 mg/kg, route oral; settings: male, plasma
[14] = Cmax in orchidectomized Sprague-Dawley rat at 1 mg/kg, iv; assay type: ADME, organism-based; parameters: dose 1 mg/kg, route intravenous; settings: male, in vivo
[15] = Clearance in orchidectomized Sprague-Dawley rat at 3 mg/kg, iv; assay type: ADME, organism-based; parameters: dose 3 mg/kg, route intravenous; settings: male, in vivo
[16] = AUC (0 to infinity) in orchidectomized Sprague-Dawley rat at 3 mg/kg, iv; assay type: ADME, organism-based; parameters: time infinity, dose 3 mg/kg, route intravenous; settings: male, plasma
[17] = Volume of distribution at steady state in orchidectomized Sprague-Dawley rat at 3 mg/kg, iv; assay type: ADME, organism-based; parameters: dose 3 mg/kg, route intravenous; settings: male, in vivo, read-out: Vdss
[18] = Tmax in orchidectomized Sprague-Dawley rat at 30 mg/kg, po; assay type: ADME, organism-based; parameters: dose 30 mg/kg, route oral; settings: male, in vivo
[19] = Cmax in orchidectomized Sprague-Dawley rat at 3 mg/kg, iv; assay type: ADME, organism-based; parameters: dose 3 mg/kg, route intravenous; settings: male, in vivo
[20] = Half life in orchidectomized Sprague-Dawley rat at 3 mg/kg, iv; assay type: ADME, organism-based; parameters: dose 3 mg/kg, route intravenous; settings: male, in vivo
[21] = Oral bioavailability in orchidectomized Sprague-Dawley rat at 30 mg/kg; assay type: ADME, organism-based; settings: male, in vivo

Cytochrome P450 2C9, sequence (P11712 whole entry): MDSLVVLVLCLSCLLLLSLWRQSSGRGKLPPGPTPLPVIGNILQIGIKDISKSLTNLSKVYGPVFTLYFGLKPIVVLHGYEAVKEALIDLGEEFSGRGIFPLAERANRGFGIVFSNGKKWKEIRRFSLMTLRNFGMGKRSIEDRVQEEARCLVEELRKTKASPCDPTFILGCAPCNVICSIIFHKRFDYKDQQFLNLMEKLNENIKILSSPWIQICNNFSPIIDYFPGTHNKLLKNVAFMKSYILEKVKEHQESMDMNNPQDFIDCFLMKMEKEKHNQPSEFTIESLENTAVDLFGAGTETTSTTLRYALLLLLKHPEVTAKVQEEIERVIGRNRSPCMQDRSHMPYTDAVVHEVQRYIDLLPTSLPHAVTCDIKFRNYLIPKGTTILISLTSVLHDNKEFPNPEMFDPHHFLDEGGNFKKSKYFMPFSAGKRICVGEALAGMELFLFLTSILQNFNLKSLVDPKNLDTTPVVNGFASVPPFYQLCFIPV
Cytochrome P450 3A4, sequence (P08684 whole entry): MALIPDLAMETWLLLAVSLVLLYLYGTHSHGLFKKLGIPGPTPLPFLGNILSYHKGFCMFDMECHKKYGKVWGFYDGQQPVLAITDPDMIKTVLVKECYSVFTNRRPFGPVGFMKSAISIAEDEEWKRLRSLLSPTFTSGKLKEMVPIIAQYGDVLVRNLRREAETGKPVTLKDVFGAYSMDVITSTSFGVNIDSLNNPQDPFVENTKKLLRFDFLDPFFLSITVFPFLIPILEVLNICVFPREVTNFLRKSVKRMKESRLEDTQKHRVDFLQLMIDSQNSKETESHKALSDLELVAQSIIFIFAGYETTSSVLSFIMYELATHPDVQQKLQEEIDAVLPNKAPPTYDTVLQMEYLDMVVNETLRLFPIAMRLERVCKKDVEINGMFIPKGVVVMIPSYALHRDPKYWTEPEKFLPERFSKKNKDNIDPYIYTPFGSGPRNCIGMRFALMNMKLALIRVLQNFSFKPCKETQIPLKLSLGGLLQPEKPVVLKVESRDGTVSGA
Cytochrome P450 2D6, sequence (P10635 whole entry): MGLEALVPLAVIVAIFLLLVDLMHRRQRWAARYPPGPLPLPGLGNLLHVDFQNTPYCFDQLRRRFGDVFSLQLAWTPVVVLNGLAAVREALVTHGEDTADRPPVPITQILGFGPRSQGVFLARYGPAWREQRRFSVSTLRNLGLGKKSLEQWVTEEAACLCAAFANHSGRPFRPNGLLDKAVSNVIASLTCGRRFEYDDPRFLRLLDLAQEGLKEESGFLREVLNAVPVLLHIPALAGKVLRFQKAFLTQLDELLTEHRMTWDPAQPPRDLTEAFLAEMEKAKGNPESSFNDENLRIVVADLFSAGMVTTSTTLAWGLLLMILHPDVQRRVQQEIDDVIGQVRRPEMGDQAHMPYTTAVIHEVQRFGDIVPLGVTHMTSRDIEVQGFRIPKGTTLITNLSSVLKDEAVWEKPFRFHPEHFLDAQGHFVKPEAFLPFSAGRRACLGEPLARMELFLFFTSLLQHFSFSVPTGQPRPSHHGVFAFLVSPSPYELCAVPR

SMILES | IC50 [1] | IC50 [2] | IC50 [3] | IC50 [4] | solubility [7] | further results
CCc1nc(CN2CCN(c3cccc4nc(-c5ccc(C(C)(C)C)cc5)sc34)CC2)c(C)[nH]1 | > 10 µM |  |  |  |  | 
CC(C)(C)c1ccc(-c2cn3cccc(N4CCN(Cc5cnc6ccccc6n5)CC4)c3n2)cc1 | 0.044 µM | 1.5 µM | 0.029 µM | 0.039 µM |  | 
CCc1nc(CN2CCN(c3cccc4sc(-c5ccc(C(C)(C)C)cc5)nc34)CC2)c(C)[nH]1 |  |  |  |  |  | inhibition [8]: 70%
CCn1cnc(CN2CCN(c3cccc4[nH]c(-c5ccc(C(C)(C)C)cc5)nc34)CC2)c1C | 0.0058 µM | 0.2 µM |  | 0.015 µM | 3 µg/mL (≈ 6.57 µM) | half-life [9]: 24 min; AUC(0-inf) [10]: 0.124 µg·h/mL; half-life [11]: 132 min; Cmax [12]: 0.533 µg/mL; AUC(0-inf) [13]: 3.44 µg·h/mL; Papp [6]: 27 nm/s; Cmax [14]: 0.458 µg/mL
CCc1nc(CN2CCN(c3cncc4[nH]c(-c5ccc(C(C)(C)C)cc5)nc34)CC2)c(C)[nH]1 | 0.058 µM |  | 0.29 µM |  |  | 
CCc1nc(CN2CCN(c3cccc4nc(-c5ccc(C(C)(C)C)cc5)oc34)CC2)c(C)[nH]1 | > 10 µM |  |  |  |  | 
CCc1nc(CN2CCN(c3cccc4nc(-c5ccc(C(C)(C)C)cc5)cn34)CC2)c(C)[nH]1 | > 10 µM |  |  |  |  | 
CCc1nc(CN2CCN(c3cccc4oc(-c5ccc(C(C)(C)C)cc5)nc34)CC2)c(C)[nH]1 |  |  |  |  |  | inhibition [8]: 61%
CC(C)(C)c1ccc(-c2nc3c(N4CCN(Cc5ccc6nccnc6c5)CC4)cccc3[nH]2)cc1 |  | 0.36 µM | 0.072 µM |  |  | 
CCc1nc(CN2CCN(c3ccnc4[nH]c(-c5ccc(C(C)(C)C)cc5)nc34)CC2)c(C)[nH]1 |  |  |  |  |  | inhibition [8]: 32%
CCc1nc(C)c(CN2CCN(c3cccc4[nH]c(-c5ccc(C(C)(C)C)cc5)nc34)CC2)[nH]1 | 0.01 µM | 0.16 µM | 0.034 µM | 0.018 µM | 20 µg/mL (≈ 43.8 µM) | 

More lines, main results first:

IC50 [1] | IC50 [2] | IC50 [3] | IC50 [4] | solubility [7] | SMILES | further results
0.047 µM | 3.4 µM | 0.081 µM | 0.09 µM |  | CC(C)(C)c1ccc(-c2cn3cccc(N4CCN(Cc5ccc6nccnc6c5)CC4)c3n2)cc1 | 
0.0098 µM | 0.92 µM | 0.037 µM | 0.06 µM | 3 µg/mL (≈ 6.57 µM) | CCc1nc(CN2CCN(c3cccn4cc(-c5ccc(C(C)(C)C)cc5)nc34)CC2)c(C)[nH]1 | inhibition (INH) (Cytochrome P450 3A4): 78%; inhibition (INH) (Cytochrome P450 2C9): 6%; half-life [5]: 21 min; Papp [6]: 2 nm/s; inhibition (INH) (Cytochrome P450 2D6): 8%
0.0043 µM | 4.4 µM | 0.095 µM | 0.02 µM |  | CC(C)(C)c1ccc(-c2cn3cccc(N4CCN(Cc5c[nH]c(=O)[nH]c5=O)CC4)c3n2)cc1 | 
0.0067 µM | 0.42 µM | 0.012 µM | 0.041 µM | 9 µg/mL (≈ 19.7 µM) | CCn1cnc(CN2CCN(c3cccn4cc(-c5ccc(C(C)(C)C)cc5)nc34)CC2)c1C | inhibition (INH) (Cytochrome P450 3A4): 54%; clearance [15]: 4.51 L/h/kg; AUC(0-inf) [16]: 0.685 µg·h/mL; Vd [17]: 3.5 L/kg; Tmax [18]: 48 min; half-life [11]: 66 min; Cmax [12]: 0.788 µg/mL; inhibition (INH) (Cytochrome P450 2C9): 10%; Cmax [19]: 1.76 µg/mL; half-life [5]: 11 min; AUC(0-inf) [13]: 1.95 µg·h/mL; Papp [6]: 11 nm/s; inhibition (INH) (Cytochrome P450 2D6): 9%; half-life [20]: 84 min; bioavailability [21]: 28%
0.0023 µM | 0.26 µM | 0.0057 µM | 0.005 µM | 6 µg/mL (≈ 12.3 µM) | CCn1cc(CN2CCN(c3cccn4cc(-c5ccc(C(C)(C)C)cc5)nc34)CC2)c(=O)[nH]c1=O | inhibition (INH) (Cytochrome P450 3A4): 54%; inhibition (INH) (Cytochrome P450 2C9): 0%; half-life [5]: 6 min; Papp [6]: 12 nm/s; inhibition (INH) (Cytochrome P450 2D6): 0%
